According to PMC7026418, “The kinase polypharmacology landscape of clinical PARP inhibitors” (Scientific Reports, 2020):
Read-outs that look alike come from different tables or passages of the source. Blank lines part the entries; values can stand above or below the compound they belong to.

Tests used:
Experiment in all cases: biochemical
Parameters in all cases: DiscoveRx KINOMEscan active site-directed competition binding; percent of control kinase bound to immobilised ligand
[1] = molecular target: CAMKK1 (Homo sapiens, UniProt Q8N5S9)
[2] = molecular target: CDKL3 (Homo sapiens, UniProt Q8IVW4)
[3] = molecular target: FLT1 (Homo sapiens, UniProt P17948)
[4] = molecular target: T1, HPK1 (Homo sapiens, UniProt Q92918)
T1 construct: gene MAP4K1

[5] = molecular target: T2, MLCK (Homo sapiens, UniProt Q32MK0)
T2 construct: gene MYLK3
T2 sequence (Q32MK0 1-819): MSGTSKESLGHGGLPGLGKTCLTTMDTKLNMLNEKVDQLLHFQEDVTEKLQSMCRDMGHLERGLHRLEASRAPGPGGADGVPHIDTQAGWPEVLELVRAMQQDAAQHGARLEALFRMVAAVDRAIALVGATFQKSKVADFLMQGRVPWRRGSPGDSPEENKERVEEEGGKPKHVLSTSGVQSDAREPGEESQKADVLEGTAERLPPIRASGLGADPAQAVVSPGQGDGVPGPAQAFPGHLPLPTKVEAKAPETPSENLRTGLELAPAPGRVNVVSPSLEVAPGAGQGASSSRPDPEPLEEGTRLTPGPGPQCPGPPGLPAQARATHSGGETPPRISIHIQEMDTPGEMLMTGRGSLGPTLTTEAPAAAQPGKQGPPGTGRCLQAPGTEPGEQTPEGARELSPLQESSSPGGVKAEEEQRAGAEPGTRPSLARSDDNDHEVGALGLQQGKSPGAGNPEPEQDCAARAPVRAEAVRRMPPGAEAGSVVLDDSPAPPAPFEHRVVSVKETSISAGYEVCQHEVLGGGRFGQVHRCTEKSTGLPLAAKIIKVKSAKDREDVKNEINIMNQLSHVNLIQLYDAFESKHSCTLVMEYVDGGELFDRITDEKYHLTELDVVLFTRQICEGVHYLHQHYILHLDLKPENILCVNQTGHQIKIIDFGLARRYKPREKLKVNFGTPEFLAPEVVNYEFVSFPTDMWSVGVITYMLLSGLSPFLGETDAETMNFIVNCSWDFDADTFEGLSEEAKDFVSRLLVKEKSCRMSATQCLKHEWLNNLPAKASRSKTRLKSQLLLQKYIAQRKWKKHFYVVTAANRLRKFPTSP

[6] = molecular target: T3, NEK11 (Homo sapiens, UniProt Q8NG66)
T3 sequence (Q8NG66 1-645): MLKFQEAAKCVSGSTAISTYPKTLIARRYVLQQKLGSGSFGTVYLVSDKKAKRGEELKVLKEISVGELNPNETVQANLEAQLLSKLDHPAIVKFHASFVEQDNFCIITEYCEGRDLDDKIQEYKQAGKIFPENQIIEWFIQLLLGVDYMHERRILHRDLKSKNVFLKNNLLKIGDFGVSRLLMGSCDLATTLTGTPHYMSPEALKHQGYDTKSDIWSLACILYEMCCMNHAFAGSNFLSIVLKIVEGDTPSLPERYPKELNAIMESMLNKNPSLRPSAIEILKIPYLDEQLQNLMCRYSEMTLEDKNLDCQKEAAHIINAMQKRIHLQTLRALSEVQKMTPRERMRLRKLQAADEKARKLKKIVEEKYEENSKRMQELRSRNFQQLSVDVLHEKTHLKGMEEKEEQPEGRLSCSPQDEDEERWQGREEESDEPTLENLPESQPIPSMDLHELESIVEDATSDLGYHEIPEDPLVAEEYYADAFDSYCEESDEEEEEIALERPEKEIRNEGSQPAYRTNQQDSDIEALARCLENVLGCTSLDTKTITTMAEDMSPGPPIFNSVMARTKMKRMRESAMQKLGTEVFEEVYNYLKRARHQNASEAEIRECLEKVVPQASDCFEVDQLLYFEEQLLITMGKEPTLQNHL

[7] = molecular target: T4, NEK5 (Homo sapiens, UniProt Q6P3R8)
T4 sequence (Q6P3R8 1-708): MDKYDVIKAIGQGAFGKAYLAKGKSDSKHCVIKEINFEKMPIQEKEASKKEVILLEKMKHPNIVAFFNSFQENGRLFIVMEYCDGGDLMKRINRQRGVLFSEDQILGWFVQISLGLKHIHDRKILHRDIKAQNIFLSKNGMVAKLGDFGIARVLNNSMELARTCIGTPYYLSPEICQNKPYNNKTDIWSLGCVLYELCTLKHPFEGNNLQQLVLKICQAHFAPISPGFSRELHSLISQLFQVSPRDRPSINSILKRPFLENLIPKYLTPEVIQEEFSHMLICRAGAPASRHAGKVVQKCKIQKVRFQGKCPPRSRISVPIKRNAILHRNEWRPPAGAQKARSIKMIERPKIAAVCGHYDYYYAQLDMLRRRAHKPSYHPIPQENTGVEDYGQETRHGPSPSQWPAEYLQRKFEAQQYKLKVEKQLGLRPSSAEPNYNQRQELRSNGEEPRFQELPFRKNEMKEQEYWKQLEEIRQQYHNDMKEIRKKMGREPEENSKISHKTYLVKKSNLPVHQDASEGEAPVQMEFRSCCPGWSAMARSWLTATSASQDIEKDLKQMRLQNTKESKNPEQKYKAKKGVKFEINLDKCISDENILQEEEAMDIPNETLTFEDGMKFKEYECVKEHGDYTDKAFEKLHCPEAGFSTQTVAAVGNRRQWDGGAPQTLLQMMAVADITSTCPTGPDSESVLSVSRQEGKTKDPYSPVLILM

[8] = molecular target: TGFBR2 (Homo sapiens, UniProt P37173)
[9] = molecular target: TNIK (Homo sapiens, UniProt Q9UKE5)
[10] = read-out: Niraparib (MK-4827) / %Ctrl @ 10000nM
[11] = read-out: Rucaparib / %Ctrl @ 10000nM, binding competition, % of control
[12] = read-out: Olaparib / %Ctrl @ 10000nM
[13] = read-out: Talazoparib (BMN 673) / %Ctrl @ 10000nM

Chain of FLT1 (P17948 whole entry): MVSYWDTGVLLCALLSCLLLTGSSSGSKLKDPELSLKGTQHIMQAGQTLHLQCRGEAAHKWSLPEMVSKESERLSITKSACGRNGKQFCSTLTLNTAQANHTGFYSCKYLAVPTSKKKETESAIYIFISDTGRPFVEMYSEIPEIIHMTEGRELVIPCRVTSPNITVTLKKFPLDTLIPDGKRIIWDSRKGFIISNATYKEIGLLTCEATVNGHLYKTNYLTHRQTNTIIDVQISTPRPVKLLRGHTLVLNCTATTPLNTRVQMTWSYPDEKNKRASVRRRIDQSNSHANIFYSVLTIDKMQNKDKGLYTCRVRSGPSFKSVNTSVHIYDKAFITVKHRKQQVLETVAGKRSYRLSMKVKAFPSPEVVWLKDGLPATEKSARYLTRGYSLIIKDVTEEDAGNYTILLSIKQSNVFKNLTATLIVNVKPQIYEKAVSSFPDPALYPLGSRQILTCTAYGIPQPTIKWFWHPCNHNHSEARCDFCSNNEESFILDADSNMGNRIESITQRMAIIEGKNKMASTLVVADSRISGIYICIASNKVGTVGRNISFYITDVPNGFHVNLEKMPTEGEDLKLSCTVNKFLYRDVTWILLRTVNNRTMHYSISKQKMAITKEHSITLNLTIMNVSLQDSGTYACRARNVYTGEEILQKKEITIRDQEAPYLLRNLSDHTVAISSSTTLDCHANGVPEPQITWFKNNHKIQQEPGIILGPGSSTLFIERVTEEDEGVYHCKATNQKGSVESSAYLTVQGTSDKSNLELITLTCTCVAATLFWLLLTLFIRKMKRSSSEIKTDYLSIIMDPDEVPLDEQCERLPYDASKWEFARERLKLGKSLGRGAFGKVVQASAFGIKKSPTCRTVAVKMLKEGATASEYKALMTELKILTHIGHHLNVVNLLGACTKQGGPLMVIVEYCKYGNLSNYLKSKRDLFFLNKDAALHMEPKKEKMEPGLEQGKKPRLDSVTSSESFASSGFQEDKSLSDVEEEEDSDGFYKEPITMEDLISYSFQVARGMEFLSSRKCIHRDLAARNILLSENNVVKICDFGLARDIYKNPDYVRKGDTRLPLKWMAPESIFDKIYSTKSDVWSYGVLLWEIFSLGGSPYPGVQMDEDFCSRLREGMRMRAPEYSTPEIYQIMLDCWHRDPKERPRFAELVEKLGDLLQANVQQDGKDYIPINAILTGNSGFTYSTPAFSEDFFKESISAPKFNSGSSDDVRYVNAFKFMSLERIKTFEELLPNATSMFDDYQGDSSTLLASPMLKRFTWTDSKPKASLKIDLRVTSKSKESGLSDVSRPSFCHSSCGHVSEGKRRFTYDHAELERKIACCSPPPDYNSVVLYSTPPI
Chain of CDKL3 (Q8IVW4 whole entry): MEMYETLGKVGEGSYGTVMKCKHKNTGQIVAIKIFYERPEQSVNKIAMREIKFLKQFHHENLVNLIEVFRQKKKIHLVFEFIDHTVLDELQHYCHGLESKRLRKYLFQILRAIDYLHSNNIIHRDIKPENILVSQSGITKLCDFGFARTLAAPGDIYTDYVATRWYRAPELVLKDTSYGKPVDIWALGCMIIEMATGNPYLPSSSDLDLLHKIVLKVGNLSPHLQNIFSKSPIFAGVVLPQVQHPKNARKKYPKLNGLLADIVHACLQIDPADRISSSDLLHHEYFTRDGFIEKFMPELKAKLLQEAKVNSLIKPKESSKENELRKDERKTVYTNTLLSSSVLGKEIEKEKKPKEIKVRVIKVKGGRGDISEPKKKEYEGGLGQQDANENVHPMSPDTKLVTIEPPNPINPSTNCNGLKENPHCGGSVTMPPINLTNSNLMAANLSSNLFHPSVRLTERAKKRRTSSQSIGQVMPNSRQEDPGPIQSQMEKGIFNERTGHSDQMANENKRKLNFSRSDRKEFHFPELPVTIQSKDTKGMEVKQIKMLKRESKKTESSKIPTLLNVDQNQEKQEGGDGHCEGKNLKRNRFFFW
Chain of TNIK (Q9UKE5 whole entry): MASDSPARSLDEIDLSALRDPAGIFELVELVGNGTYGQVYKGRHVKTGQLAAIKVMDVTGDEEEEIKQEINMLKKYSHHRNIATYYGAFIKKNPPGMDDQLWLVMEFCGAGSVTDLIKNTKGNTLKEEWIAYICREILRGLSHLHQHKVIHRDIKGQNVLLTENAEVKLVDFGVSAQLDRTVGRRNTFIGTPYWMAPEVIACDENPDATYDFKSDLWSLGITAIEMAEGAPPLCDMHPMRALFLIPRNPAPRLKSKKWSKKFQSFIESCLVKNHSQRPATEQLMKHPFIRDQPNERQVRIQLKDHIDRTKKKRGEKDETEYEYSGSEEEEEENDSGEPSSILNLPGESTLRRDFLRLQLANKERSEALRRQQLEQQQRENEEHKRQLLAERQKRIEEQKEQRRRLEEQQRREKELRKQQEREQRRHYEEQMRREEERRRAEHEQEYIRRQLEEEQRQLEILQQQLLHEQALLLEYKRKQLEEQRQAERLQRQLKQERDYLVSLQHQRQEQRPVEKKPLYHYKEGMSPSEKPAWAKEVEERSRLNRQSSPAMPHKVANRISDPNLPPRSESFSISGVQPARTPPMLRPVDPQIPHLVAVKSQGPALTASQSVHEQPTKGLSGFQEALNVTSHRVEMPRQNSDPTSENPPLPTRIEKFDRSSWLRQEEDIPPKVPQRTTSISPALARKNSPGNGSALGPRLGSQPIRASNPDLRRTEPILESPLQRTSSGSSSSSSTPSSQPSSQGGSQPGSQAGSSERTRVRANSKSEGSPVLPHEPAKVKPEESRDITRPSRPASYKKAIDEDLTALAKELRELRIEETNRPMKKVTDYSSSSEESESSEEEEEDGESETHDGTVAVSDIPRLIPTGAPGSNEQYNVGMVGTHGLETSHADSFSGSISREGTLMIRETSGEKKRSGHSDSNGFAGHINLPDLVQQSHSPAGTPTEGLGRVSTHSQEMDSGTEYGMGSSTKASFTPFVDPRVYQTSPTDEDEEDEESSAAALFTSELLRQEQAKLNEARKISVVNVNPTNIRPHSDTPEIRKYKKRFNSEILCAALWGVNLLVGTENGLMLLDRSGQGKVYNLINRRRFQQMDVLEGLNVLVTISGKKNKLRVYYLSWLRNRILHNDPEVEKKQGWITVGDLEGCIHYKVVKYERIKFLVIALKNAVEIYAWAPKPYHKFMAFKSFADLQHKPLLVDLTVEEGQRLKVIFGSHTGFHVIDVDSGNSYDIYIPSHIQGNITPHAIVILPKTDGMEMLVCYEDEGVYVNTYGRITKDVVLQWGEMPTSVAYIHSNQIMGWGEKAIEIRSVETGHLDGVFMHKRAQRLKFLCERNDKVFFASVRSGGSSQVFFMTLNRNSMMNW
Chain of CAMKK1 (Q8N5S9 whole entry): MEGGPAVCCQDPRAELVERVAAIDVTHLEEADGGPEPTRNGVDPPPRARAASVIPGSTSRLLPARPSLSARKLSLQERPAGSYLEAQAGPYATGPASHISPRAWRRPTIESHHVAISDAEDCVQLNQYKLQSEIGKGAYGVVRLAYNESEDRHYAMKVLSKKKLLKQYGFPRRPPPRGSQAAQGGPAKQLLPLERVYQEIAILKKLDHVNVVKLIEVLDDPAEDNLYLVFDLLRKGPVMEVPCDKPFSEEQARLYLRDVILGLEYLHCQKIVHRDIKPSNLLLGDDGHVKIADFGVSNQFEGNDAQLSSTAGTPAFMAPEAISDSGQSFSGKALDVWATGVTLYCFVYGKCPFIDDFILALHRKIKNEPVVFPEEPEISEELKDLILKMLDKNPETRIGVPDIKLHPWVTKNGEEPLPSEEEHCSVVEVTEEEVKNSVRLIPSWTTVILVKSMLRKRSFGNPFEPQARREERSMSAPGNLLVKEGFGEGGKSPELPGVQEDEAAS
T1 sequence (Q92918 whole entry): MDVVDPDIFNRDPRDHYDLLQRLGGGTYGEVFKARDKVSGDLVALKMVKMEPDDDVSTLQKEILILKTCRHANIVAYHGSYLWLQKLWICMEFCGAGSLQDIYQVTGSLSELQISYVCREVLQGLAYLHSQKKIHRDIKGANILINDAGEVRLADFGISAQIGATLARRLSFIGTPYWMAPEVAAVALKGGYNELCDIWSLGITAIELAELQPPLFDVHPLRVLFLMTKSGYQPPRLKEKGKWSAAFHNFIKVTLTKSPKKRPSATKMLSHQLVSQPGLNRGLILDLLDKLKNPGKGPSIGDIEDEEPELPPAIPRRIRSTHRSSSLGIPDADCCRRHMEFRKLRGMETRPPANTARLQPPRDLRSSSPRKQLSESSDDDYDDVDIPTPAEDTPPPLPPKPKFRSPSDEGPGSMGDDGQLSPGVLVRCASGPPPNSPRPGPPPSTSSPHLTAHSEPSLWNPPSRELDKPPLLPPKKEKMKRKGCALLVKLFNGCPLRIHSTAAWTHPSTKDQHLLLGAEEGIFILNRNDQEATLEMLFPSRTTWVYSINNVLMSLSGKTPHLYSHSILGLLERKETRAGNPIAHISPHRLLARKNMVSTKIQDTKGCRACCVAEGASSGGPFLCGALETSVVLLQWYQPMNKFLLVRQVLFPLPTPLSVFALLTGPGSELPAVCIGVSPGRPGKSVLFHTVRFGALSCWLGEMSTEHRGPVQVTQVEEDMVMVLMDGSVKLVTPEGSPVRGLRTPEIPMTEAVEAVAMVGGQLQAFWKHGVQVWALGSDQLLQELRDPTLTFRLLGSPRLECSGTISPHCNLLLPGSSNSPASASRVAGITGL

Structure (SMILES): NC(=O)c1cccc2cn(-c3ccc([C@@H]4CCCNC4)cc3)nc12 [Niraparib]
percent of control binding at 10 µM [1, 10]: 88%
percent of control binding at 10 µM [2, 10]: 64%
percent of control binding at 10 µM [3, 10]: 100%
percent of control binding at 10 µM [4, 10]: 100%
percent of control binding at 10 µM [5, 10]: 92%
percent of control binding at 10 µM [6, 10]: 99%
percent of control binding at 10 µM [7, 10]: 89%
percent of control binding at 10 µM [8, 10]: 92%
percent of control binding at 10 µM [9, 10]: 86%

percent of control binding at 10 µM [1, 11]: 66%
percent of control binding at 10 µM [2, 11]: 100%
percent of control binding at 10 µM [3, 11]: 93%
percent of control binding at 10 µM [4, 11]: 96%
percent of control binding at 10 µM [5, 11]: 53%
percent of control binding at 10 µM [6, 11]: 91%
percent of control binding at 10 µM [7, 11]: 87%
percent of control binding at 10 µM [8, 11]: 96%
percent of control binding at 10 µM [9, 11]: 22%
Structure (SMILES): CNCc1ccc(-c2[nH]c3cc(F)cc4c3c2CCNC4=O)cc1 [Rucaparib]

percent of control binding at 10 µM [1, 12]: 88%
percent of control binding at 10 µM [2, 12]: 100%
percent of control binding at 10 µM [3, 12]: 99%
percent of control binding at 10 µM [4, 12]: 94%
percent of control binding at 10 µM [5, 12]: 95%
percent of control binding at 10 µM [6, 12]: 82%
percent of control binding at 10 µM [7, 12]: 96%
percent of control binding at 10 µM [8, 12]: 89%
percent of control binding at 10 µM [9, 12]: 100%
Structure (SMILES): O=C(c1cc(Cc2n[nH]c(=O)c3ccccc23)ccc1F)N1CCN(C(=O)C2CC2)CC1 [Olaparib]

percent of control binding at 10 µM [1, 13]: 97%
percent of control binding at 10 µM [2, 13]: 97%
percent of control binding at 10 µM [3, 13]: 100%
percent of control binding at 10 µM [4, 13]: 85%
percent of control binding at 10 µM [5, 13]: 98%
percent of control binding at 10 µM [6, 13]: 100%
percent of control binding at 10 µM [7, 13]: 97%
percent of control binding at 10 µM [8, 13]: 98%
percent of control binding at 10 µM [9, 13]: 98%
Structure (SMILES): Cn1ncnc1[C@H]1c2n[nH]c(=O)c3cc(F)cc(c23)N[C@@H]1c1ccc(F)cc1 [Talazoparib]
